Some test systems named below: EKVX NSCLC; HCC-2998 colon; KM12 colon; NCI-H460 lung; OVCAR-8 ovarian; SK-MEL-2 melanoma; SNB-19 CNS; UACC-257 melanoma; UO-31 renal.
Holding throughout (assay): NCI anticancer screen, dose series, 48 h

Structures are written as SMILES.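 Growth conditions: 96-well plates. Treatment: test compound, 48 hours, 5 concentrations. Analysis: linear interpolation between bracketing concentrations; unreached endpoints set to highest concentration. The concentration for 50% growth inhibition is given as GI50. Definition used: TGI = concentration required for complete inhibition of growth.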

As to `CC/C(=C(/CC)c1ccc(O)cc1)c1ccc([O-])cc1.CC/C(=C(/CC)c1ccc(O)cc1)c1ccc([O-])cc1.O=C([CH-]C(=O)c1ccccc1)c1ccccc1.O=C([CH-]C(=O)c1ccccc1)c1ccccc1.[Ti+4]`, the GI50 is 17.6 µM with EKVX NSCLC; 12.2 µM in the experiment on HCC-2998 colon; 12.5 µM in the experiment with KM12 colon; 13.1 µM in the experiment with NCI-H460 lung; 21.5 µM in the experiment on OVCAR-8 ovarian; 11.9 µM with SK-MEL-2 melanoma. Besides, the GI50 with SNB-19 CNS is 14.7 µM; in the experiment on UACC-257 melanoma, 15.1 µM; in the experiment with UO-31 renal, 21.8 µM. Also, the TGI in the experiment with EKVX NSCLC was found to be 46 µM; in the experiment with HCC-2998 colon, 24.6 µM; in the experiment on KM12 colon, 35.1 µM; with NCI-H460 lung, 25.8 µM; with OVCAR-8 ovarian, 46.3 µM; in the experiment with SK-MEL-2 melanoma, 25.2 µM. The TGI in the experiment with SNB-19 CNS worked out at 27.8 µM; in the experiment with UACC-257 melanoma, 35.9 µM; with UO-31 renal it was 38.6 µM.
Turning to `CCCC(C)C[C@@H](C)CC(C)/C=C(\C)c1oc(=O)c(C)c(O)c1C` (some centres undefined) (tested in a mixture with another compound), the TGI came to 31.9 µM in the experiment with EKVX NSCLC; 25.5 µM in the experiment with HCC-2998 colon; 41.4 µM in the experiment with KM12 colon; 25.1 µM in the experiment on NCI-H460 lung; 39.7 µM with OVCAR-8 ovarian; 22.8 µM in the experiment with SK-MEL-2 melanoma. Further, the TGI with SNB-19 CNS stood at 28 µM; in the experiment with UACC-257 melanoma it was 29.2 µM; with UO-31 renal, 27 µM.
In the case of `Nc1ncn(C2C=C(CO)C(O)C2O)c(=O)n1` (centres undefined), the TGI in the experiment on EKVX NSCLC, with HCC-2998 colon, in the experiment with KM12 colon, in the experiment with NCI-H460 lung, in the experiment with OVCAR-8 ovarian and with SK-MEL-2 melanoma was greater than 100 µM throughout. The TGI in the experiment on SNB-19 CNS, with UACC-257 melanoma and in the experiment with UO-31 renal was greater than 100 µM throughout.
As for `Cc1cccc(C)c1NC(=O)CCc1nnc2s/c(=C\c3ccc(Cl)cc3)c(=O)n12`, the TGI in the experiment with EKVX NSCLC, in the experiment with HCC-2998 colon, in the experiment on KM12 colon, with NCI-H460 lung, with OVCAR-8 ovarian and with SK-MEL-2 melanoma was greater than 100 µM throughout. Also, the TGI with SNB-19 CNS, in the experiment with UACC-257 melanoma and with UO-31 renal was greater than 100 µM throughout.
In the case of `NC(=S)N/N=C(\C(=O)Nc1cccc([N+](=O)[O-])c1)c1nc2ccc([N+](=O)[O-])cc2[nH]c1=O`, the TGI in the experiment on EKVX NSCLC, with HCC-2998 colon, in the experiment with KM12 colon, in the experiment on NCI-H460 lung, in the experiment on OVCAR-8 ovarian and in the experiment on SK-MEL-2 melanoma was greater than 100 µM throughout. For the same compound, the TGI with SNB-19 CNS, in the experiment with UACC-257 melanoma and in the experiment with UO-31 renal was greater than 100 µM in each case.
Regarding `CCN(CC)CCNC(=O)c1nn(C)c(=S)[nH]c1=S`, the TGI in the experiment on EKVX NSCLC, in the experiment with HCC-2998 colon, with KM12 colon, in the experiment on NCI-H460 lung, in the experiment on OVCAR-8 ovarian and in the experiment on SK-MEL-2 melanoma was greater than 100 µM throughout. For the same compound, the TGI with SNB-19 CNS, in the experiment with UACC-257 melanoma and in the experiment on UO-31 renal was greater than 100 µM in each case.
With `CC(=O)/C(=C\C1=CCCO1)C(=O)Nc1ccccc1C`, the TGI with EKVX NSCLC, in the experiment with HCC-2998 colon, in the experiment with KM12 colon, with NCI-H460 lung, in the experiment on OVCAR-8 ovarian and in the experiment with SK-MEL-2 melanoma was greater than 100 µM throughout. The TGI in the experiment with SNB-19 CNS, in the experiment on UACC-257 melanoma and in the experiment on UO-31 renal was greater than 100 µM throughout.
As to `COc1ccc(C(=O)OC2C=COC(C)C2OC(=O)c2ccc(OC)cc2)cc1` (centres undefined), the TGI in the experiment with EKVX NSCLC is greater than 100 µM; in the experiment on HCC-2998 colon it was greater than 100 µM; in the experiment on KM12 colon, 40.2 µM; in the experiment with NCI-H460 lung, greater than 100 µM; in the experiment on OVCAR-8 ovarian it was greater than 73.7 µM; in the experiment with SK-MEL-2 melanoma it was 43.2 µM. Also, the TGI was greater than 100 µM in the experiment with SNB-19 CNS, greater than 72.4 µM in the experiment with UACC-257 melanoma and greater than 100 µM in the experiment with UO-31 renal.
On to `CCC[CH2][Sn]([CH2]CCC)([O]C(=O)C(N)CSC)[O]C(=O)C(N)CSC` (centres undefined), for which the GI50 with EKVX NSCLC was 12.1 µM; in the experiment on HCC-2998 colon, 13.1 µM; with KM12 colon it was 13.3 µM; in the experiment on NCI-H460 lung it was 29.7 µM; in the experiment with OVCAR-8 ovarian, 12.6 µM; in the experiment on SK-MEL-2 melanoma, 2.78 µM. Besides, the GI50 in the experiment on SNB-19 CNS is 12.1 µM; in the experiment on UACC-257 melanoma, 11.8 µM; in the experiment on UO-31 renal it was 14.3 µM. For the same compound, the TGI in the experiment with EKVX NSCLC was found to be 27.1 µM; in the experiment on HCC-2998 colon, 30.5 µM; in the experiment with KM12 colon, 29.4 µM; with NCI-H460 lung, 90.1 µM; in the experiment on OVCAR-8 ovarian, 38.1 µM; in the experiment on SK-MEL-2 melanoma, 8.79 µM. Besides, the TGI with SNB-19 CNS was determined as 24.6 µM; in the experiment with UACC-257 melanoma, 26.1 µM; in the experiment on UO-31 renal, 27.4 µM.
As for `COC(=O)C12C3C4C5C3(C#N)C1C5(C(=O)OC)C42C(=O)N(C(C)C)C(C)C` (centres undefined), the TGI with EKVX NSCLC, with HCC-2998 colon, with KM12 colon, in the experiment with NCI-H460 lung, in the experiment with OVCAR-8 ovarian and in the experiment on SK-MEL-2 melanoma was greater than 100 µM in each case. In addition, the TGI in the experiment with SNB-19 CNS, in the experiment on UACC-257 melanoma and with UO-31 renal was greater than 100 µM each time.
In the case of `Cc1ccc(NC(=O)CCC/C(CC(=O)c2ccc(Br)cc2)=N/NC(=O)CC#N)cc1`, the TGI with EKVX NSCLC, with HCC-2998 colon, in the experiment on KM12 colon, in the experiment with NCI-H460 lung, with OVCAR-8 ovarian and in the experiment with SK-MEL-2 melanoma was greater than 100 µM in each case. Further, the TGI in the experiment on SNB-19 CNS, in the experiment with UACC-257 melanoma and in the experiment on UO-31 renal was greater than 100 µM each time.
Consider `CCCCc1ccc(-n2c3nc(=O)n(C)c(=O)c-3nc3ccccc32)cc1`, for which the TGI in the experiment with EKVX NSCLC worked out at 15.5 µM; with HCC-2998 colon, 16.3 µM; in the experiment with KM12 colon, 26.6 µM; with NCI-H460 lung it was 16.6 µM; in the experiment with OVCAR-8 ovarian, 32.1 µM; in the experiment on SK-MEL-2 melanoma it was 24 µM. In addition, the TGI is 21.2 µM in the experiment with SNB-19 CNS, 14.5 µM in the experiment on UACC-257 melanoma and 25.1 µM in the experiment with UO-31 renal.
For `CCOC(=O)C1=C(Nc2ccc(Cl)cc2Cl)OC/C1=N\NS(=O)(=O)c1ccc(C)cc1`, the TGI with EKVX NSCLC, in the experiment on HCC-2998 colon, in the experiment with KM12 colon, with NCI-H460 lung, in the experiment on OVCAR-8 ovarian and with SK-MEL-2 melanoma was greater than 100 µM throughout. In addition, the TGI with SNB-19 CNS, in the experiment with UACC-257 melanoma and in the experiment with UO-31 renal was greater than 100 µM in each case.
Turning to `COC(=O)C12CC(c3ccccc31)C1C(=O)OC(=O)C12` (centres undefined), the TGI in the experiment with EKVX NSCLC, in the experiment with HCC-2998 colon, in the experiment on KM12 colon, in the experiment on NCI-H460 lung, in the experiment with OVCAR-8 ovarian and in the experiment on SK-MEL-2 melanoma was greater than 100 µM in each case. Further, the TGI in the experiment with SNB-19 CNS, in the experiment with UACC-257 melanoma and with UO-31 renal was greater than 100 µM throughout.
As to `O=C(Nc1ccc(F)cc1)C(=O)C(C1OC(=O)c2ccccc21)[N+](=O)[O-]` (centres undefined), the TGI with EKVX NSCLC, with HCC-2998 colon, with KM12 colon, in the experiment with NCI-H460 lung, in the experiment with OVCAR-8 ovarian and in the experiment with SK-MEL-2 melanoma was greater than 100 µM in each case. In addition, the TGI in the experiment with SNB-19 CNS, in the experiment on UACC-257 melanoma and in the experiment on UO-31 renal was greater than 100 µM each time.
Consider `C[C@]12CC[C@H](OCCC#N)CC1=CC[C@@H]1C2CC[C@]2(C)/C(=N/OCCC#N)CCC12` (some centres undefined), for which the TGI with EKVX NSCLC, with HCC-2998 colon, in the experiment on KM12 colon, with NCI-H460 lung, in the experiment with OVCAR-8 ovarian and in the experiment on SK-MEL-2 melanoma was greater than 100 µM each time. Also, the values for the TGI in the experiment with SNB-19 CNS, in the experiment with UACC-257 melanoma and in the experiment on UO-31 renal were 97.9 µM, greater than 100 µM and greater than 100 µM, respectively.
With `O=C([CH-]C(=O)c1ccccc1)c1ccccc1.O=C([CH-]C(=O)c1ccccc1)c1ccccc1.O=C([CH-]C(=O)c1ccccc1)c1ccccc1.[OH3+].[Y+3]`, the GI50 was 3.32 µM with EKVX NSCLC; 10.3 µM in the experiment on HCC-2998 colon; 5.38 µM in the experiment with KM12 colon; 4.29 µM in the experiment on NCI-H460 lung; 3.5 µM in the experiment on OVCAR-8 ovarian; 4.24 µM in the experiment on SK-MEL-2 melanoma. For the same compound, the values for the GI50 in the experiment on SNB-19 CNS, in the experiment on UACC-257 melanoma and in the experiment on UO-31 renal were 8.04 µM, 12 µM and 4.51 µM, respectively. In addition, the TGI was 23.1 µM with EKVX NSCLC; 25.8 µM in the experiment on HCC-2998 colon; 24 µM in the experiment on KM12 colon; 34.6 µM in the experiment with NCI-H460 lung; 21.8 µM in the experiment with OVCAR-8 ovarian; 17.9 µM in the experiment on SK-MEL-2 melanoma. In addition, the TGI in the experiment on SNB-19 CNS was found to be 56.4 µM; in the experiment with UACC-257 melanoma, 33.2 µM; in the experiment on UO-31 renal, 14.7 µM.
Take `O=c1[nH]c2c3ccccc3ccc2c2cc3c(cc12)OCO3`: the TGI in the experiment with EKVX NSCLC, in the experiment on HCC-2998 colon, with KM12 colon, with NCI-H460 lung, with OVCAR-8 ovarian and in the experiment on SK-MEL-2 melanoma was greater than 100 µM each time. Further, the TGI in the experiment with SNB-19 CNS, in the experiment with UACC-257 melanoma and in the experiment on UO-31 renal was greater than 100 µM in each case.

The record behind these values is PubChem BioAssay (NCI).
